The source of these data is patent publication US20040192869A1, “Polyvalent imprinted polymer and process of preparation thereof” (priority 2003, published 2004).

SMILES strings stand for the structures.

The test concerns the target lysozyme (Gallus gallus, UniProt P00698). The test can be described thus: Relative inhibition of lysozyme (I50), UV spectrophotometric method with Micrococcus lysodeikticus as substrate. The format is biochemical. To be noted: copolymers prepared in absence of lysozyme, and NAG. Here is the method: This example describes estimation of inhibition concentration (I50) for lysozyme imprinted polyvalent copolymers and polyvalent copolymers prepared in the absence of lysozymne by UV spectrophotometric method. Micrococcus lysodeikticus is a substrate for the enzyme lysozyme. Relative binding of copolYmers was estimated by using a procedure reported by Neuberger and Wilson (1967). 1.5% w/v stock solutions of non imprinted copolymer was prepared in 0.0066 M phosphate buffer pH 6.2 containing 0.0154 M sodium chloride and 0.008 M sodium azide. One milliliter of stock solution containing different copolymer concentration was mixed with 1.6 ml of 78 μg/ml of Micrococcus lysodeikticus in a 3-ml capacity glass cuvette. The mixture was incubated for 5 minutes at 20° C. To this mixture 0.1 ml of lysozyme (27 μg/ml) was added and mixed thoroughly. The relative absorbance at 450 nm (Δ450) was recorded for 30 seconds. A blank reading without the copolymer was noted and the change in the absorbance per second was calculated. Then relative inhibition was calculated.

Chain of lysozyme (P00698 19-147): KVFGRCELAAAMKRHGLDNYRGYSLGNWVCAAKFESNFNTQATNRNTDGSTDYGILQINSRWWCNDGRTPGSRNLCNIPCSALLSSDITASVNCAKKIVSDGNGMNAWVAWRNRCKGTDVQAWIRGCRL

`CC(=O)N[C@H]1C(O)O[C@H](CO)[C@@H](O)[C@@H]1O` (stereo partly drawn) [NAG, N-Acetyl Glucosamine] displayed an I max of 55.29. Besides, under “concentration at maximum inhibition”, the “I max” value came out at 92000 nM. Further, for the setting “read-out: Relative Inhibition Iso (I50)”, the IC50 turned out to be 74 µM.
